Data: ChEMBL document CHEMBL2010773, “Design and synthesis of a vialinin A analog with a potent inhibitory activity of TNF-α production and its transformation into a couple of bioprobes” (Bioorg Med Chem Lett, 2012)
Calls of active or inactive are those of the source. The rule behind the calls is not given here.

Tests used:
RBL-2H3 [1] = assay: Antiinflammatory activity in rat RBL2H3 cells assessed as inhibition of DNP-BSA-induced TNF-alpha production preincubated for 15 mins prior DNP-BSA challenge measured after 30 mins by ELISA; assay type: functional, cell-based
[2] = tested on: Radical scavenging activity; assay: Antioxidant activity assessed as DPPH radical scavenging activity after 30 mins by spectrophotometry; assay type: functional
RBL-2H3 [3] = assay: Antiinflammatory activity in rat RBL2H3 cells assessed as inhibition of DNP-BSA-induced TNF-alpha production at 1 nM preincubated for 15 mins prior DNP-BSA challenge measured after 30 mins by ELISA; assay type: functional, cell-based

In the case of Cc1c(C)c(-c2ccc(OCc3cn(CCCCCCNC(=O)CCCC[C@@H]4SC[C@@H]5NC(=O)N[C@@H]54)nn3)cc2)c(O)c(O)c1-c1ccc(O)cc1, the IC50 (RBL-2H3 [1]) is reported as 8.15 nM.

O=C(Cc1ccccc1)Oc1c(OC(=O)Cc2ccccc2)c(-c2ccc(O)cc2)c(O)c(O)c1-c1ccc(O)cc1 [VIALININ A] showed an IC50 (RBL-2H3 [1]) of 0.09 nM and an EC50 [2] of 14000 nM.

Molecule COc1ccc2c(COC(=O)CCCCCn3cc(COc4ccc(-c5c(C)c(C)c(-c6ccc(O)cc6)c(O)c5O)cc4)nn3)cc(=O)oc2c1 has an IC50 (RBL-2H3 [1]) of 0.55 nM.

For COCOc1c(OCOC)c(-c2ccc(O)cc2)c(C)c(C)c1-c1ccc(O)cc1, the IC50 (RBL-2H3 [1]) was 0.32 nM and the inhibition (RBL-2H3 [3]) was “Active”.

For Cc1c(C)c(-c2ccc(O)cc2)c(O)c(O)c1-c1ccc(O)cc1, the IC50 (RBL-2H3 [1]) was 0.02 nM.
